Results on 4 compounds are retold here after patent US9593149B2, “Amylin and calcitonin receptor agonist” (Novo Nordisk A/S, priority 2014, dated 2017).

Values after ≈ are worked out from the molar mass of the structure shown. Numbered stars: 1 amine (or outer) side, 2 acyl side, 3 side chain; on linkers, the order of the positions; unused ones are H or OH. Peptide text beside a SMILES is read from it. * marks the point of attachment. C20 diacid = O=C(O)CCCCCCCCCCCCCCCCCCC(=O)*; C18 diacid = O=C(O)CCCCCCCCCCCCCCCCC(=O)*; γGlu = O=C(O)[C@H](CCC(=O)[*:2])N[*:1]

What is called IC50 is the concentration at which inhibition is half-maximal. Broadly, the solubility is the dissolved amount per volume that the medium holds.

Data set [1] in a line: Assay (IV) determination of solubility. The class given is physicochemical. As for the experimental part: Assay (IV)—Determination of Solubility
The mimylin peptide was dissolved in water at ˜500 nmol/ml and mixed 1:1 with a series of buffers (100 mM glycylglycine pH 3.0, 100 mM glycylglycine pH 4.0, 100 mM glycylglycine pH 5.0, 100 mM bistrispropane pH 6.0, 100 mM bistrispropane pH 6.5, 100 mM bistrispropane pH 7.0, 100 mM bistrispropane pH 7.5, 100 mM bistrispropane pH 8.0).

The target in a further data set is T1, rat calcitonin receptor (Rattus norvegicus, UniProt P32214).
T1 construct: expressed in transfected cells; host or cells: BHK tk'ts 13 (transient, FuGENE 6)
T1 sequence (P32214 25-479 isoform P32214-2 limits assumed): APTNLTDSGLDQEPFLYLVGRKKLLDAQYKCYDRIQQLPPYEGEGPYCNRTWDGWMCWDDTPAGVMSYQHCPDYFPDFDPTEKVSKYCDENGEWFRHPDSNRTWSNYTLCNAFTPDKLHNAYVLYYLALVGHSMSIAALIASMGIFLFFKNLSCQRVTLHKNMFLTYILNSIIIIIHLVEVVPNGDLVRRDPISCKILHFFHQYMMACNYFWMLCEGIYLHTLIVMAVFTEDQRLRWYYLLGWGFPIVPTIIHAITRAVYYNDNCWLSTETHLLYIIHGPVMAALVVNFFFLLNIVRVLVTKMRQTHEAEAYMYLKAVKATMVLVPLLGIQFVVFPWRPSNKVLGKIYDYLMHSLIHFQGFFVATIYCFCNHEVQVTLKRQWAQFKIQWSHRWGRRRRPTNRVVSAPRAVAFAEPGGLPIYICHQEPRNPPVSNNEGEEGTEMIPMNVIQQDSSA
Briefly: Assay (VIII) binding to the rat calcitonin receptor. The note with it: membranes; read-out: rCT-R binding IC50. The method in brief: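 Competition binding on membranes from BHK tk'ts 13 cells transiently transfected with rat calcitonin receptor, otherwise run as the human receptor assay. Plates washed in cold HBSS, lysed in 0.1 M NaOH/1% SDS and scintillation-counted. IC50 from one-site competition fit as affinity measure.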

The nature of data set [2]: Assay (IX) pK, T½ in mini-pig. The note with it: i.v. The class given is in vivo, Göttingen mini-pigs. As for the experimental part:
Assay (IX)—pK—Determination of T½ in Mini-Pig
Pharmacokinetic (PK) studies in Göttingen mini-pigs were conducted in order to determine the T½ of the mimylin compound according to the Examples as indicated after i.v. administration.
T½ values of the amylin analogues of the invention is determined by pharmacokinetic studies in female Göttingen mini-pigs from Ellegaard Göttingen Minipigs ApS and the principles of laboratory animal care are followed.
An acclimatisation period of approximately 6-10 days was allowed before the animals entered the study. At start of the acclimatisation period the mini-pigs were about 5 to 12 months old and in the weight range of 15-35 kg. The mini-pigs had two central venous catheters inserted which were used for blood sampling.
The studies were conducted in an animal room which was illuminated to give a cycle of approximately 12 hours light and 12 hours darkness. The animals were housed individually. The animals had free access to domestic quality drinking water during the study, and no food restrictions applied for PK studies. The animals were weighed on arrival and on the days of dosing.
In the present studies the test substances were administered intravenously in approximately 5 nmol/kg dose. The animals received a single intravenous injection in one central venous catheter and blood sampling was performed from the other catheter, where possible. Each test substance was given to typically three but in some cases two or four animals.
A full plasma concentration-time profile, employing 12-16 sampling points, was obtained from each animal. In example blood samples were collected according to the following schedule:
After Intravenous Administration:
Pre-dose (0), 0.5, 1, 2, 4, 6, 8, 12, 24, 48, 72, 96, 120, 168 and 240 hours after injection. In some cases also additional blood samples up to 288 hours post injection were taken.
At each sampling time, 0.5 to 2 ml of blood was drawn from each animal. The blood samples were taken via the central venous catheter.
The 0.8 mL blood samples were collected into EDTA test tubes (8 mM EDTA). Blood samples were kept on ice for max 20 min. before centrifugation. Plasma was separated using centrifugation (i.e. at 4° C., 10 min., 2000G) and was immediately transferred to Micronic tubes on dry ice. Approximately 200 μl plasma was transferred to each Micronic tube. The plasma was stored at −20° C. until assayed. The plasma samples were assayed for the content of compound using LCMS.
The plasma concentration-time profiles were analysed by a non-compartmental pharmacokinetic analysis (NCA) using Phoenix WinNonlin 6.3 (Pharsight Inc., Mountain View, Calif., USA). NCA was performed using the individual plasma concentration-time profiles from each animal. T½ is the terminal half-life=In2/λz and was determined from λz, the first order rate constant associated with the terminal (log-linear) portion of the curve, estimated by linear regression of time vs. log concentration.
MS-Method for Amylin and Mimylin Quantification
40 μl plasma is diluted with 120 μl 66.67% EtOH+1% HCOOH and mixed. Centrifuged for 20 min. at 13000 rpm, 4° C. The supernatant is analyzed by an LC-MS method on a Sciex API 3000 and quantitated with a standard made up in plasma

Take `CC(C)C[C@H](NC(=O)[C@H](C)NC(=O)[C@H](C)NC(=O)[C@@H](NC(=O)[C@H](CO)NC(=O)[C@H](CC(C)C)NC(=O)[C@H](CCC(=O)O)NC(=O)[C@H](CO)NC(=O)[C@H](C)NC(=O)CC[C@H](NC(=O)CCCCCCCCCCCCCCCCCCC(=O)O)C(=O)O)[C@@H](C)O)C(=O)NCC(=O)N[C@@H](CCCNC(=N)N)C(=O)N[C@@H](CC(C)C)C(=O)N[C@@H](CO)C(=O)N[C@@H](C)C(=O)N[C@@H](CCC(=O)O)C(=O)N[C@@H](CC(C)C)C(=O)N[C@@H](Cc1cnc[nH]1)C(=O)N[C@@H](CCC(=O)O)C(=O)N[C@@H](CC(C)C)C(=O)N[C@@H](C)C(=O)N[C@H](C(=O)N[C@@H](Cc1ccc(O)cc1)C(=O)N1CCC[C@H]1C(=O)N[C@@H](CCCNC(=N)N)C(=O)N[C@H](C(=O)N[C@@H](CCC(=O)O)C(=O)N[C@H](C(=O)NCC(=O)N[C@@H](CO)C(=O)NCC(=O)N[C@@H](CO)C(=O)N1CCC[C@H]1C(N)=O)[C@@H](C)O)[C@@H](C)O)[C@@H](C)O` [compound 56, [N-terminal(C20 diacid-gGlu), des1, 23Y, 30S, 31G]mimylin] ({C20 diacid-γGlu}-ASELSTAALGRLSAELHELATYPRTETGSGSP-NH2): the Solubility result in data set [1] (pH 3.0), in data set [1] (pH 4.0), in data set [1] (pH 5.0), in data set [1] (pH 6.0), in data set [1] (pH 6.5) and in data set [1] (pH 7.0) was “≧200 μM” each time. Besides, the Solubility result in data set [1] (pH 7.5) and in data set [1] (pH 8.0) was “≧200 μM” throughout. For the same compound, the IC50 on rat calcitonin receptor was determined as 0.202 nM. Also, in data set [2], the “PK mini pig iv T½” value came out at 88 h.

As for `CC(C)C[C@H](NC(=O)CNC(=O)[C@H](CO)NC(=O)[C@H](C)NC(=O)CC[C@H](NC(=O)CCCCCCCCCCCCCCCCC(=O)O)C(=O)O)C(=O)N[C@@H](CO)C(=O)N[C@H](C(=O)N[C@@H](C)C(=O)N[C@@H](C)C(=O)N[C@@H](CC(C)C)C(=O)NCC(=O)N[C@@H](CCCNC(=N)N)C(=O)N[C@@H](CC(C)C)C(=O)N[C@@H](CO)C(=O)N[C@@H](CCC(N)=O)C(=O)N[C@@H](CCC(=O)O)C(=O)N[C@@H](CC(C)C)C(=O)N[C@@H](Cc1cnc[nH]1)C(=O)N[C@@H](CCC(=O)O)C(=O)N[C@@H](CC(C)C)C(=O)N[C@@H](CCC(N)=O)C(=O)N[C@H](C(=O)N[C@@H](Cc1ccc(O)cc1)C(=O)N1CCC[C@H]1C(=O)N[C@@H](CCCNC(=N)N)C(=O)N[C@H](C(=O)N[C@@H](CCC(=O)O)C(=O)N[C@H](C(=O)NCC(=O)N[C@@H](CO)C(=O)NCC(=O)N[C@H](C(=O)N[C@@H](Cc1ccc(O)cc1)C(N)=O)[C@@H](C)O)[C@@H](C)O)[C@@H](C)O)[C@@H](C)O)[C@@H](C)O` [compound 110, [N-terminal(C18 diacid-gGlu), des1, 4G, 15Q, 21Q, 23Y, 30S, 31G, 32T, 33Y]mimylin] ({C18 diacid-γGlu}-ASGLSTAALGRLSQELHELQTYPRTETGSGTY-NH2), the Solubility entry in data set [1] (pH 3.0), in data set [1] (pH 4.0), in data set [1] (pH 6.0), in data set [1] (pH 6.5), in data set [1] (pH 7.0) and in data set [1] (pH 7.5) was “≧200 μM” throughout. For the same compound, the Solubility entry in data set [1] (pH 8.0) is listed as “≧200 μM”. In data set [1] (pH 5.0), this compound gave a solubility at 18 h of 149 µM (≈ 569 µg/mL). For the same compound, the IC50 at rat calcitonin receptor came to 0.013 nM. In addition, in data set [2], the “PK mini pig iv T½” value was found to be 32 h.

For `CC(C)C[C@H](NC(=O)[C@H](C)NC(=O)[C@H](C)NC(=O)[C@@H](NC(=O)[C@H](CO)NC(=O)[C@H](CC(C)C)NC(=O)[C@H](CCC(=O)O)NC(=O)[C@H](CO)NC(=O)[C@H](C)NC(=O)[C@H](CCC(=O)O)NC(=O)CCCCCCCCCCCCCCCCC(=O)O)[C@@H](C)O)C(=O)NCC(=O)N[C@@H](CCCNC(=N)N)C(=O)N[C@@H](CC(C)C)C(=O)N[C@@H](CO)C(=O)N[C@@H](C)C(=O)N[C@@H](CCC(=O)O)C(=O)N[C@@H](CC(C)C)C(=O)N[C@@H](C)C(=O)N[C@@H](CCC(=O)O)C(=O)N[C@@H](CC(C)C)C(=O)N[C@@H](C)C(=O)N[C@H](C(=O)N[C@@H](CC(C)C)C(=O)N1CCC[C@H]1C(=O)N[C@@H](CCCNC(=N)N)C(=O)N[C@H](C(=O)N[C@@H](CCC(=O)O)C(=O)N[C@H](C(=O)NCC(=O)N1CCC[C@H]1C(=O)N[C@@H](CCC(=O)O)C(=O)N[C@@H](CO)C(=O)N1CCC[C@H]1C(N)=O)[C@@H](C)O)[C@@H](C)O)[C@@H](C)O` [compound 13, [N-terminal(C18 diacid), 18A]mimylin] ({C18 diacid}-EASELSTAALGRLSAELAELATLPRTETGPESP-NH2), the Solubility entry in data set [1] (pH 3.0), in data set [1] (pH 4.0), in data set [1] (pH 5.0), in data set [1] (pH 6.0), in data set [1] (pH 6.5) and in data set [1] (pH 7.0) was “≧200 μM” each time. The Solubility entry in data set [1] (pH 7.5) and in data set [1] (pH 8.0) was “≧200 μM” throughout. Further, the “PK mini pig iv T½” value in data set [2] worked out at 86 h.

In the case of `CC(C)C[C@H](NC(=O)[C@H](C)NC(=O)[C@H](C)NC(=O)[C@@H](NC(=O)[C@H](CO)NC(=O)[C@H](CC(C)C)NC(=O)[C@H](CCC(=O)O)NC(=O)[C@H](CO)NC(=O)[C@H](C)NC(=O)CC[C@H](NC(=O)CCCCCCCCCCCCCCCCCCC(=O)O)C(=O)O)[C@@H](C)O)C(=O)NCC(=O)N[C@@H](CCCNC(=N)N)C(=O)N[C@@H](CC(C)C)C(=O)N[C@@H](CO)C(=O)N[C@@H](C)C(=O)N[C@@H](CCC(=O)O)C(=O)N[C@@H](CC(C)C)C(=O)N[C@@H](Cc1cnc[nH]1)C(=O)N[C@@H](CCC(=O)O)C(=O)N[C@@H](CC(C)C)C(=O)N[C@@H](C)C(=O)N[C@H](C(=O)N[C@@H](CC(C)C)C(=O)N1CCC[C@H]1C(=O)N[C@@H](CCCNC(=N)N)C(=O)N[C@H](C(=O)N[C@@H](CCC(=O)O)C(=O)N[C@H](C(=O)NCC(=O)N[C@@H](CO)C(=O)NCC(=O)N[C@@H](CO)C(=O)N1CCC[C@H]1C(N)=O)[C@@H](C)O)[C@@H](C)O)[C@@H](C)O` [Ex. #40, [N-terminal(C20 diacid-gGlu), des1, 30S, 31G]mimylin] ({C20 diacid-γGlu}-ASELSTAALGRLSAELHELATLPRTETGSGSP-NH2), the Solubility entry in data set [1] (pH 3.0), in data set [1] (pH 4.0), in data set [1] (pH 5.0), in data set [1] (pH 6.0), in data set [1] (pH 6.5) and in data set [1] (pH 7.0) was “≧200 μM” each time. In addition, the Solubility result in data set [1] (pH 7.5) and in data set [1] (pH 8.0) was “≧200 μM” each time. The “PK mini pig iv T½” value in data set [2] amounted to 171 h.
